Here are results for four compounds from US20200138804A1, “METHODS FOR TREATING CANCER” (X4 Pharmaceuticals, Inc., priority 2017, published 2020).

The test system of series [1] is advanced clear-cell renal cell carcinoma. As to conditions: nivolumab 3 mg/kg IV every two weeks or everolimus 10 mg orally daily; P<0.001; cited from earlier work.
The nature of series [2]: Solubility of X4P-001 as a function of pH. Format: physicochemical.
Series [3] is described as follows: in vivo. The protocol: In certain embodiments, the dosage composition may be provided twice a day in divided dosage, approximately 12 hours apart. In other embodiments, the dosage composition may be provided once daily. […] Dosage for oral administration may be from about 100 mg to about 1200 mg once or twice per day.
Series [4] relates to tumor infiltrating lymphocytes and MDSC in MC38 tumors. Put plainly: Flow cytometry of Day 8 tumor samples, MC38 model (Groups 5-8). The format is in vivo, mouse. An excerpt:
On Day 8, tumor samples from Groups 5-8 are obtained and divided into three parts. The first part is process to single cells by flow cytometry; second part is preserved by snap freeze; and the third part is preserved as formalin-fixed, paraffin-embedded (FFPE) blocks for IHC analysis of biomarkers.
Samples subjected to flow cytometry are sorted into the following cell types:
(In flow cytometry, cells or beads pass a laser one at a time.)

The test system of series [5] is intra-tumoral CD8+ activated T-cells and FoxP3+ Tregs. Put plainly: Immunohistochemical analysis of intra-tumor T-cell infiltrates in a melanoma patient before and after X4P-001. The format is in vivo, human. The protocol: Intra-tumoral tissue samples were obtained from a patient with melanoma prior to treatment (Day 1), and after three (3) weeks of treatment with CXCR4 inhibitor […]-001 (200 mg BID, oral) (Week 4). Samples were stained for CD8+, indicative of activated T-cells, and FoxP3+, indicative of immunosuppressive regulator T-cells (Tregs). The tables below indicate the total counts and density per square millimeter (mm^2) of CD8+ activated T-cells and FoxP3+ Tregs, as well as the ratio of CD8+ activated T-cells:FoxP3+ Tregs per mm^2 at day 1 and after 3 weeks of treatment.

The conditions of series [6]: Phase 1 and 2a trials, oral; cited from earlier work.
The subject of series [7] is murine models of melanoma, renal cell carcinoma, and ovarian cancer. The following applies: including decreased metastasis and increased overall survival; cited from earlier work.
For series [8] the following is noted: subcutaneous injection; cited from earlier work.

Entries after “also recorded” stand apart in the source; their conditions may differ. Where two headings read alike, the source gives them in different places.

Consider “nivolumab: fully human IgG4 monoclonal antibody binding the PD-1 receptor”, for which the objective response rate in series [1] is recorded as 25%.
Regarding `CO[C@H]1C[C@@H]2CC[C@@H](C)[C@@](O)(O2)C(=O)C(=O)N2CCCC[C@H]2C(=O)O[C@H]([C@H](C)C[C@@H]2CC[C@@H](OCCO)[C@H](OC)C2)CC(=O)[C@H](C)/C=C(\C)[C@@H](O)[C@@H](OC)C(=O)[C@H](C)C[C@H](C)/C=C/C=C/C=C/1C` [everolimus], the objective response rate in series [1] is 5%.
The solubility is the concentration that dissolves in the medium under given conditions. Lower therefore signals little dissolved substance. For orientation: half-life means the time needed for the level to fall by half in the phase considered. Consider `NCCCCN(Cc1nc2ccccc2[nH]1)[C@H]1CCCc2cccnc21` [X4P-001], for which, in series [2] (aqueous buffer, pH range 3.0 to 8.0 (freely soluble)), the solubility was greater than 100 mg/mL. For the same compound, in series [2] (water), the Solubility in water entry is “only slightly soluble”. In series [3], the terminal half-life result is on record as “approximately 14.5 hrs”. Moreover, the half-life in series [3] (terminal half-life) lay in the range of 12 to 24 h. The “Treg, Percent of CD45^+ Population (Mean ± SEM)” value in series [4] (control 0.5 ± 0.08) was 0.49 ± 0.14%. Further, the “CD4^+, Percent of CD45^+ Population (Mean ± SEM)” value in series [4] (control 1.21 ± 0.29) is reported as 1.3 ± 0.51%. In addition, the “CD8^+, Percent of CD45^+ Population (Mean ± SEM)” value in series [4] (control 3.91 ± 0.69) came out at 6.11 ± 0.66%. Besides, in series [4] (control 7.82), the “CD8^+/Treg” value stood at 12.47. In addition, the “MDSC, Percent of CD45^+ Population (Mean ± SEM)” value in series [4] (control 28.97 ± 3.6) came out at 16.2 ± 0.67%. Moreover, in series [4] (versus control), the “effect on CD8^+ T cells” value was “increasing CD8^+ T cells” and the “effect on MDSCs” value was “significant effect on reducing MDSCs”. Moreover, in series [5] (Week 4, after 3 weeks of 200 mg BID oral, Day 1 before treatment 24.5868158), the “Total FoxP3+/mm^2” value is 25.2 /mm^2. Further, the “Total CD8+/mm^2” value in series [5] (Week 4, after 3 weeks of 200 mg BID oral, Day 1 before treatment 56.87565442) is on record as 121.4 /mm^2. The “Total FoxP3+” value in series [5] (Week 4, after 3 weeks of 200 mg BID oral, Day 1 before treatment 313) is on record as 337. Further, in series [5] (Week 4, after 3 weeks of 200 mg BID oral, Day 1 before treatment 720), the “Total CD8+” value is reported as 1685. Besides, in series [5] (Week 4 versus Day 1, 200 mg BID oral, FIG. 3), the “intra-tumoral CD8+ T-cell counts” value was “marked increases in CD8+ T-cells; also recorded: marked increase”. Besides, in series [6], the “pharmacodynamic activity: changes in circulating white blood cells (WBCs)” value was “dose- and concentration-related changes in circulating white blood cells”; the “volume of distribution (VL)” value is listed as “high volume of distribution”. In addition, the anti-tumor activity result in series [7] is “significant anti-tumor activity”.
As to `c1cc(CN2CCCNCCNCCCNCC2)ccc1CN1CCCNCCNCCCNCC1` [Plerixafor, reference compound], in series [7], the anti-tumor activity entry is given as “significant anti-tumor activity”. Also, in series [8], the half-life result was “very short half-life”.
